For assay [1], the target named is RAF proto-oncogene serine/threonine-protein kinase (Homo sapiens, UniProt P04049). Put plainly: Inhibition of RAF1 (unknown origin).
In assay [2] the target is Dual specificity tyrosine-phosphorylation-regulated kinase 1A (Homo sapiens, UniProt Q13627). Put plainly: Inhibition of DYRK1A (unknown origin).
In assay [3] the target is Cyclin-dependent kinase 5 (Homo sapiens, UniProt Q00535). Put plainly: Inhibition of CDK5 (unknown origin).
Assay [4] has as its target Glycogen synthase kinase-3 beta (Homo sapiens, UniProt P49841). Put plainly: Inhibition of GSK3beta (unknown origin).

Chain of RAF proto-oncogene serine/threonine-protein kinase (P04049 whole entry): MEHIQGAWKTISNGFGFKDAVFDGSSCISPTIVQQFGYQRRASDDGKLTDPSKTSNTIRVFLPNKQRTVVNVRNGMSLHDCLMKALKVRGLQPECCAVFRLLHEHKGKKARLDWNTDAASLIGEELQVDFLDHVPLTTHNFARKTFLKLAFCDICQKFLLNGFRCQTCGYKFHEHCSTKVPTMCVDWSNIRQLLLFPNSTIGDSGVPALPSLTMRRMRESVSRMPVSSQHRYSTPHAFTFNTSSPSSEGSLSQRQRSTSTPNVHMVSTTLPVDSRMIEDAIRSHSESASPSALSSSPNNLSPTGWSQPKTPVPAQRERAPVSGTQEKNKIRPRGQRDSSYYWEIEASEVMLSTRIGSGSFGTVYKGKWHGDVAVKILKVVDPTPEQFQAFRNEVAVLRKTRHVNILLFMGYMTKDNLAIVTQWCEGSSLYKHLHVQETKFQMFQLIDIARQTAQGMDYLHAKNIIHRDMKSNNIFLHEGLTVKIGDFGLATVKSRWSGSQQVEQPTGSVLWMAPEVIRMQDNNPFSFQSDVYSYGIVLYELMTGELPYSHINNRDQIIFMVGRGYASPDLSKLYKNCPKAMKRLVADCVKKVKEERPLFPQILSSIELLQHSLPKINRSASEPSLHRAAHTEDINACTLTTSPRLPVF
Chain of Cyclin-dependent kinase 5 (Q00535 whole entry): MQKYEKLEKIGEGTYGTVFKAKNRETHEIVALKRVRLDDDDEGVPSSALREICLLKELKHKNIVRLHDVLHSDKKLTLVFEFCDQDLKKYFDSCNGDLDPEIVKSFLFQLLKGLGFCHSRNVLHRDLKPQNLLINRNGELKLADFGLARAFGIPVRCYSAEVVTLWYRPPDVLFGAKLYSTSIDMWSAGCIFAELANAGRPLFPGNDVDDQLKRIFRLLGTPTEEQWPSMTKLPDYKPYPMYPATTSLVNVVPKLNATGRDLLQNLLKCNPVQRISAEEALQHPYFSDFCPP
Chain of Glycogen synthase kinase-3 beta (P49841 whole entry): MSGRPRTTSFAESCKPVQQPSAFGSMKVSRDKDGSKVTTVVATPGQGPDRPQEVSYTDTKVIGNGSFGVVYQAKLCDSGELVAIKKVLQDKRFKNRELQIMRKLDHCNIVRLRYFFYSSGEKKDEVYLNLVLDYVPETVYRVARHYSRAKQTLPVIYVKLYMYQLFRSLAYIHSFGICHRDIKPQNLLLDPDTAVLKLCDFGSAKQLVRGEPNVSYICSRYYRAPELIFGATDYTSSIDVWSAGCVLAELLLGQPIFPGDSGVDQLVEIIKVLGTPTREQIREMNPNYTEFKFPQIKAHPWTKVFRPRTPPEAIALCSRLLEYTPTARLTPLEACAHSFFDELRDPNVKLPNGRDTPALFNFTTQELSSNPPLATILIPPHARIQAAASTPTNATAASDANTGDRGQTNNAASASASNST

As for `COc1ccc2[nH]c(-c3ccc(O)cc3)c(-c3ccncc3)c2n1`, the IC50 (commonly the concentration that gives 50% inhibition) in assay [1] was 1.3 µM; in assay [2], 0.47 µM; in assay [3] it was greater than 10 µM; in assay [4] it was greater than 10 µM.

`COc1ccc2[nH]c(-c3cccc(O)c3)c(-c3cccnc3)c2n1`: the IC50 in assay [1] is 16.5 µM; in assay [2] it was greater than 10 µM; in assay [3], greater than 10 µM; in assay [4] it was greater than 10 µM.

With `COc1ccc2[nH]c(-c3ccccc3)c(-c3ccncc3)c2n1`, the IC50 was 3.2 µM in assay [1], 1.3 µM in assay [2], greater than 10 µM in assay [3] and greater than 10 µM in assay [4].

For the molecule `COc1ccc2[nH]c(-c3cccc(O)c3)c(-c3ccncc3)c2n1`, the IC50 was 0.286 µM in assay [1], 0.7 µM in assay [2], greater than 10 µM in assay [3] and greater than 10 µM in assay [4].

With `COc1ccc2[nH]c(-c3cc(O)cc(O)c3)c(-c3ccncc3)c2n1`, the IC50 in assay [1] was greater than 50 µM; in assay [2], greater than 10 µM; in assay [3] it was greater than 10 µM; in assay [4], greater than 10 µM.

As for `COc1ccc2[nH]c(-c3ccccc3O)c(-c3ccncc3)c2n1`, the IC50 in assay [2] is 0.23 µM; in assay [3] it was greater than 10 µM; in assay [4], greater than 10 µM.

With `COc1ccc2[nH]c(-c3cccc(O)c3)c(-c3ccccn3)c2n1`, the IC50 in assay [1] was 9.2 µM; in assay [2] it was greater than 10 µM; in assay [3] it was greater than 10 µM; in assay [4], greater than 10 µM.

With `COc1ccc2[nH]c(-c3ccc4cc(O)ccc4c3)c(-c3ccncc3)c2n1`, the concentration for half-maximal inhibition (IC50) in assay [1] was greater than 50 µM; in assay [2], 0.84 µM; in assay [3], greater than 10 µM; in assay [4], greater than 10 µM.

Regarding `COc1ccc2[nH]c(-c3cccc(F)c3)c(-c3ccncc3)c2n1`, the IC50 in assay [1] was 4.3 µM; in assay [2], 1.8 µM; in assay [3], greater than 10 µM; in assay [4], greater than 10 µM.

The values are drawn from ChEMBL document CHEMBL3217515, “Synthesis and biological evaluation of 2,3-bis(het)aryl-4-azaindole derivatives as protein kinase inhibitors” (Medchemcomm, 2011).
